According to patent publication US20220338471A1, “HONEY BEE-SAFE ACARICIDAL COMPOUNDS” (Kansas State University Research Foundation, priority 2019, published 2022):
Where “and” joins values, the source holds several entries; their conditions need not be identical. Equal entries are not always repeated. Where two headings read alike, the source gives them in different places. Square brackets hold non-standard residues; d marks the D form. Ends that are not written are not given here. Peptide text beside a SMILES is read from it. Oic = O=C(O)[C@@H]1C[C@@H]2CCCC[C@@H]2N1

Key:
worker honey bees = assay: Injection into the thorax of worker honey bees (negative effects); assay type: in vivo, honey bee; conditions: injection of 50 nL at 200 μM into the thorax, 24-hour observation, n=4
Method: (§1) Honey bee FMRFamide receptor was cloned and expressed in the same system as described for the procotolin receptor. […] Potential effects of the peptidomimetics 2439, 2334, 2336, Ac-2442, and H2O control were tested by injections of the compounds into the thorax of worker honey bees.

[1] = molecular target: T1, varroa mite proctolin receptor (VdProctR) (Varroa destructor, UniProt A0A7T1TE40); assay: Receptor activity assay: luminescence in cells transiently transfected with varroa mite proctolin receptor; assay type: cell-based; conditions: for EC50: varroa mite proctolin receptor
T1 sequence (A0A7T1TE40 1-530): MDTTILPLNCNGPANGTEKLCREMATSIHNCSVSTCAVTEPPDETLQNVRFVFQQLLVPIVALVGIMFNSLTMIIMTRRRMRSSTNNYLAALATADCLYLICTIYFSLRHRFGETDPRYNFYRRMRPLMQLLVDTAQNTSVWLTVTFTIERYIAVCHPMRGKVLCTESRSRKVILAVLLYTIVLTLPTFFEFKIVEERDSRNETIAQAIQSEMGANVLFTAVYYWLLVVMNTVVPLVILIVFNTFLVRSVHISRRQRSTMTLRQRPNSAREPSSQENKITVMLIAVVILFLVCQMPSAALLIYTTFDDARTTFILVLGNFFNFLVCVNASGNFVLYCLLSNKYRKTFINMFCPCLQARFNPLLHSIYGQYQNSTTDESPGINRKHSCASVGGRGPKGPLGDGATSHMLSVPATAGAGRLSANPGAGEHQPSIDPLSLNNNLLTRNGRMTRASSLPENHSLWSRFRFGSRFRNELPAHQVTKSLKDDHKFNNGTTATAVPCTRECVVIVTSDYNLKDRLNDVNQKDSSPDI
Method: (§2) Approximately thirty hours after transfection, the cells were collected and preincubated with coelenterazine h for the functional assay. The ligands in serial dilutions were loaded into 96-well opaque plates. Cells treated with coelenterazine h were injected into each well on an Orion microplate luminometer (Berthold) luminescent plate reader. The luminescence was measured for 20 seconds immediately after the cell injections. Data analyses were performed to determine the accumulated luminescence value for 20 seconds after extraction of blank-well luminescence. A dose-response curve was generated and the EC50 (50% effective concentration) was calculated in Origin 7 (OriginLab).

Varroa mites = assay: Varroa mite toxicity test (forced feeding, 200 nL drop on the gnathosoma; paralysis/death counted); assay type: in vivo, Varroa destructor; conditions: 48-hour treatment, feeding assay
Method: Varroa mite toxicity test: Adult female Varroa mites were collected using a sugar roll method from honey bee hives located at the East Campus apiary of the University of Nebraska (Lincoln, Nebr. USA). The hives were not treated with chemicals for honey bee parasites or pathogens. The mites were sorted in the laboratory with a paint brush and tested within 4 h post collection. The mites were placed in 9 cm diameter Petri dishes (Fisher Scientific) lined with filter paper. The dorsal side of the mites was secured to a strip of tape placed on the filter paper. Ten mites were secured to the tape in each dish and three dishes were used for each treatment (i.e., 30 mites/treatment). The peptide mimics were prepared in autoclaved ddH2O to a concentration of 0.1 nM for 2334, 2336, and Ac-2442 and 3 nM for 2326. Each peptide mimic was delivered as a 200 nL aliquot to the gnathosoma of the mites with autoclaved ddH2O serving as the untreated control. Following exposure to the peptide mimics, the number of affected (i.e., dead and/paralyzed) was observed and recorded at 1, 2, 6, 12, 24, and 48 h. The percent effect for each treatment was analyzed using a one-way analysis of variance (ANOVA) with a Tukey's post-hoc test (GraphPad Prism, La Jolla, Calif.; p<0.05).
In the continued bioassay (FIG. 4 and FIG. 5), the toxicities were assessed by counting paralysis/death in feeding assay. […]

[2] = tested on: empty vector transfected cells; assay: Receptor activity assay, negative control: cells transfected with empty vector; assay type: cell-based; conditions: 10 μM proctolin
Method: as §2, with “Receptor activity assay: […] Approximately” for “Approximately”, “[…] The receptor” for “A dose-response curve”, “also tested with a variety of peptide analogues” for “generated”, “peptidomimetics.” for “the EC50 (50% effective concentration) was calculated in Origin 7 (OriginLab).”

Bombyx mori larval gut = conditions: cited from earlier work
honey bee queen = conditions: injection, 1 μL containing 1 μg; cited from earlier work
[3] = tested on: honey bee FMRFamide receptor; assay: Activity on the honey bee FMRFamide receptor expressed in the same system; assay type: cell-based; conditions: in words
Method: as §2, §1

[4] = first set of experiments, EC50 relative to proctolin (0.22 nM)

Compound	Negative effects in worker honey bees (worker honey bees)	Activity at high concentrations compared with proctolin ([1]; at 1 μM and 10 μM)	Fold change [1, 4]	EC50 ([1]; first set of experiments, read-out: EC50)	Agonist activity / potency on the Varroa mite proctolin receptor, in words ([1]; in words)	Percent effect (paralyzed or dead mites) (Varroa mites)	Activity on empty vector transfected cells [2]	Concentration required for hindgut contraction (Bombyx mori larval gut; Bombyx mori larval hindgut)	Concentration required in the midgut to slightly reduce leucine uptake (Bombyx mori larval gut; Bombyx mori larval midgut)	Egg-laying activity of the queen (honey bee queen)	EC50 ([1]; EC50 (nM), first set of experiments)	EC50 ([1]; EC50 (nM), second set of peptidomimetics)	Fold change ([1]; second set, EC50 relative to proctolin (14.19 nM))	Activity on the honey bee FMRFamide receptor [3]
CC(C)C[C@H](NC(=O)[C@H](Cc1ccc(O)cc1)NC(=O)[C@@H](N)CCCNC(=N)N)C(=O)N1[C@H](C(=O)N[C@H](C(=O)O)[C@@H](C)O)C[C@@H]2CCCC[C@@H]21 [Analog 2336, RYL[Oic]T] (H-RYL[Oic]T-OH; N-terminus assumed)	did not show any negative effects	higher than that of proctolin	5.95	1.3 nM and 1.31 nM	strong agonists	100%	–	–	–	–	–	–	–	–
RYLPT [Proctolin, RYLPT]	–	–	1.00	–	–	–	did not show any activity	180 µM	10 µM	increased the egg-laying activity of the queen	0.22 nM	14.2 nM	1.00	no activities
